In patent publication US8586719B2, “Triterpenes for modulating gene expression and cell membrane, and as antiprotozoal agents” (Pacific Arrow Limited, priority 2005, dated 2013):
Converted amounts (≈) assume the structure as drawn. Where two headings read alike, the source gives them in different places.

Columns and labels:
[1] = system: Leishmania Major (promastigotes); test: Cell growth of Leishmania parasites by MTT assay; type: cell-based; conditions: for IC50: Leishmania major, read-out: IC50, cytotoxic to Leishmania Major (promastigotes)
Experimental: Method: Leishmania parasites (Leishmania major: MRHO/SU/59/P/LV39) were grown in culture medium in a T75 flask at room temperature. Promastigotes of Leishmania major (approximately 40 million per ml) were used in the experiment. 1.2 ml cell culture was transferred to a well of the 24-wells plate. Saponin Y10 (0.2 ml in medium) with different concentrations (final 6.25-200 ug/ml) was added to culture and cells were grown for 1-5 days at room temperature. At the end of drug-treatment, 150 ul of MTT (5 mg/ml in PBS) was added to each well and incubated for 4 hours. Formazan formed in cells was dissolved with DMSO and the OD at 490 nm was determined by an ELISA reader.

[2] = system: cancer cells; test: Anticancer activity of alkaline-hydrolysed saponins (cells not stated); type: cell-based; conditions: after removal of acyl groups by alkaline hydrolysis
[3] = system: Fibronectin; test: Fibronectin secretion from ES2 cells; type: cell-based, human
Experimental: (§1) Reduction of Fibronectin secretion from ES2 cells after xanifolia-Y treatment. • (Results of F1, F3, F4, F5, F7, F8, F11, F12A, F15, F16, F17) Data in PCT/US2008/002086, 1188-ALA-PCT, filed Feb. 15, 2008 are incorporated herein by reference • (F11) For lung carcinoma cells (H460), at concentration of 20 ug/ml, there are inhibitions of Fibronectin secretion ranged from 20-60%. • (F12A) For bladder carcinoma cells (HTB-9), Xanifolia-Y (10 ug/ml) inhibits 50% of Fibronectin secretion. • (F15) In liver HepG2 cells. 10 ug/ml of xanifolia-Y inhibits 42% secretion of Fibronectin. • (F16) Incubation of brain glioblastoma T98G cells with 10 ug/ml of xanifolia-Y inhibits 27% Fibronectin secretion and with 20 ug/ml Y inhibits 74% Fibronectin secretion. • (F17) For skin SK-MeI-5 cells, the inhibition is 40-57% with 20 ug/ml of Xanifolia-Y.

[4] = system: Fibronectin; test: Fibronectin secretion, skin SK-MEL-5 cells; type: cell-based, human; conditions: Skin SK-MEL-5; concentration 10 (label suffix)
Experimental: as §1

[5] = system: Fibronectin; test: Fibronectin secretion, bladder carcinoma cells (HTB-9); type: cell-based, human; conditions: Bladder HTB-9; 10 ug/ml (table: label suffix -10)
Experimental: as §1

[6] = system: Fibronectin; test: Fibronectin secretion, liver HepG2 cells; type: cell-based, human; conditions: 10 ug/ml (table: label suffix -10)
Experimental: as §1

[7] = system: Fibronectin; test: Fibronectin secretion, brain glioblastoma T98G cells; type: cell-based, human; conditions: Brain T98G; 10 ug/ml (table: label suffix -10)
Experimental: as §1

[8] = system: Fibronectin; test: Fibronectin secretion, lung carcinoma cells (H460); type: cell-based, human; conditions: Lung H460; concentration 10 (label suffix)
Experimental: as §1

[9] = concentration 10 (label suffix; text uses ug/ml)

C/C=C(/C)C(=O)O[C@H]1[C@H](OC(=O)/C(C)=C\C)[C@@]23C(CC1(C)C)[C@]1(CCC4[C@@]5(C)CC[C@H](O)C(C)(C)C5CC[C@@]4(C)[C@]1(C)C[C@H]2O)O[C@@H]3O (stereo partly shown) [ACH-Mb5]
IC50 ([1]; MTT assay, promastigotes): 18 µg/mL (≈ 26.8 µM)

CC1O[C@@H](OC2[C@H](OC3[C@H](O[C@H]4C(O[C@@H]5OC(CO)[C@H](O)[C@@H](O)C5O)[C@H](O[C@H]5CC[C@@]6(C)C(CC[C@]7(C)C6CC[C@]68O[C@H](O)[C@]9(C6CC(C)(C)[C@@H](O)[C@@H]9O)[C@H](O)C[C@]87C)C5(C)C)OC(C(=O)O)[C@H]4O)OC(CO)[C@H](O)[C@H]3O)OC(C)[C@H](O)[C@@H]2O)C(O)[C@@H](O)[C@H]1O (stereo partly shown) [AKOH-Mb5]
anticancer activity [2]: lost anticancer activity | cytotoxic to Leishmania Major (promastigotes) ([1]; MTT assay, promastigotes): not cytotoxic | % inhibition of Fibronectin secretion ([3]; concentration 40 (label suffix)): No effect

CC1(C)CC2C3=CCC4[C@@]5(C)CC[C@H](O[C@@H]6OC(C(=O)O)[C@@H](O)[C@@H](O[C@@H]7O[C@@H](CO)C(O)[C@@H]7O)C6O[C@@H]6OC(CO)[C@H](O)[C@@H](O)C6O)C(C)(C)C5CC[C@@]4(C)[C@]3(C)[C@@H](O)[C@@H](O)[C@@]2(CO)[C@@H](O)[C@@H]1O (stereo partly shown) [AKOH-Y]
anticancer activity [2]: lost anticancer activity | cytotoxic to Leishmania Major (promastigotes) ([1]; MTT assay, promastigotes): not cytotoxic

C/C=C(/C)C(=O)O[C@H]1[C@H](OC(=O)/C(C)=C\C)[C@@]2(CO)C(CC1(C)C)C1=CCC3[C@@]4(C)CC[C@H](O[C@@H]5OC(C(=O)O)[C@@H](O)C(O[C@@H]6OC[C@@H](O)C(O)C6O)C5O[C@@H]5OC(CO)[C@H](O)C(O)C5O)C(C)(C)C4CC[C@@]3(C)[C@]1(C)C[C@H]2O (stereo partly drawn) [Ba1, 3-O-[β-D-galactopyranosyl(1→2)]-β-D-xylopyranosyl(1→3)-β-D-glucuronopyranosyl-21-O-angeloyl, 22-O-angeloyl-3β, 15α, 21β, 22α, 28-pentahydroxyolean-12-ene]
% inhibition of Fibronectin secretion [4]: 10% | % inhibition of Fibronectin secretion [5]: 25% | IC50, cytotoxic to Leishmania Major (promastigotes) ([1]; MTT assay, promastigotes): 15 µg/mL (≈ 13.3 µM) | % inhibition of Fibronectin secretion [3, 9]: 30% | % inhibition of Fibronectin secretion [6]: 33% | % inhibition of Fibronectin secretion [7]: 26% | % inhibition of Fibronectin secretion [8]: 19%

CC=C(C)C(=O)OC1C(OC(=O)c2ccccc2)C(C)(C)CC2C3=CCC4C5(C)CCC(OC6OC(C(=O)OC)C(O)C(OC7OCC(O)C(O)C7O)C6OC6OC(CO)C(O)C(O)C6O)C(C)(C)C5CCC4(C)C3(C)CC(O)C21CO (stereo not shown) [Ba4]
% inhibition of Fibronectin secretion [4]: 10% | % inhibition of Fibronectin secretion [5]: 30% | % inhibition of Fibronectin secretion [3, 9]: 28% | % inhibition of Fibronectin secretion [6]: 28% | % inhibition of Fibronectin secretion [7]: 24% | % inhibition of Fibronectin secretion [8]: 18%

CC=C(C)C(=O)OC1C(OC(=O)C(C)=CC)C23C(O)CC4(C)C5(C)CCC6C(C)(C)C(OC7OC(C(=O)O)C(O)C(OC8OC(CO)C(O)C(O)C8OC8OC(C)C(O)C(O)C8OC8OC(C)C(O)C(O)C8O)C7OC7OC(CO)C(O)C(O)C7O)CCC6(C)C5CCC4(OC2O)C3CC1(C)C (stereo not shown) [Mb5]
% inhibition of Fibronectin secretion [4]: 15% | % inhibition of Fibronectin secretion [5]: 28% | IC50, cytotoxic to Leishmania Major (promastigotes) ([1]; MTT assay, promastigotes): 15 µg/mL (≈ 10.2 µM) | % inhibition of Fibronectin secretion [3, 9]: 35% | % inhibition of Fibronectin secretion [6]: 35% | % inhibition of Fibronectin secretion [7]: 33% | % inhibition of Fibronectin secretion [8]: 25%

C/C=C(/C)C(=O)O[C@H]1[C@H](OC(C)=O)C(C)(C)CC2C3=CCC4[C@@]5(C)CC[C@H](O[C@@H]6OC(C(=O)OCCCC)[C@@H](O)C(O[C@@H]7O[C@@H](CO)C(O)C7O)C6O[C@@H]6OC(CO)[C@H](O)C(O)C6O)C(C)(C)C5CC[C@@]4(C)[C@]3(C)C[C@@H](O)[C@]21CO (stereo partly drawn) [X, 3-O-{[β-D-galactopyranosyl(1→2)]-[α-L-arabinofuranosyl(1→3)]-β-D-glucuronopyranosidebutyl ester}-21-O-acetyl-22-O-angeloyl-3β,16α, 21β,22α, 28-pentahydroxyolean-12-ene]
% inhibition of Fibronectin secretion [3, 9]: 39%

C/C=C(/C)C(=O)O[C@H]1[C@H](OC(=O)C(C)C)[C@@]2(CO)C(CC1(C)C)C1=CCC3[C@@]4(C)CC[C@H](O[C@@H]5OC(C(=O)O)[C@@H](O)C(O[C@@H]6O[C@@H](CO)C(O)C6O)C5O[C@@H]5OC(CO)[C@H](O)C(O)C5O)C(C)(C)C4CC[C@@]3(C)[C@]1(C)[C@@H](O)[C@H]2O (stereo partly drawn) [Y0, 3-O-[β-D-galactopyranosyl(1→2)]-α-L-arabinofuranosyl(1→3)-β-D-glucuronopyranosyl-21-O-angeloyl, 22-O-(2-methylpropanoyl)-3β, 15α, 16α, 21β, 22α, 28-hexahydroxyolean-12-ene]
IC50, cytotoxic to Leishmania Major (promastigotes) ([1]; MTT assay, promastigotes): 25 µg/mL (≈ 22.1 µM) | % inhibition of Fibronectin secretion [3, 9]: 34%

C/C=C(/C)C(=O)O[C@@H]1C(O)[C@H](O[C@H]2[C@H](OC(C)=O)[C@@]3(CO)C(CC2(C)C)C2=CCC4[C@@]5(C)CC[C@H](O[C@@H]6OC(C(=O)O)[C@@H](O)[C@@H](O[C@@H]7O[C@@H](CO)[C@@H](O)C7O)C6O[C@@H]6OC(CO)[C@H](O)[C@@H](O)C6O)C(C)(C)C5CC[C@@]4(C)[C@]2(C)C[C@H]3O)OC(C)[C@@H]1OC(=O)/C(C)=C\C (stereo partly drawn) [Y1, 3-O-[β-D-galactopyranosyl (1→2)]-α-L-arabinofuranosyl(1→3)-β-D-glucuronopyranosyl-21-O-(3,4-diangeloyl)-α-L-rhamnophyranosyl-22-O-acetyl-3β,16α, 21β, 22α, 28-pentahydroxyolean-12-ene]
IC50 [1]: 23 µg/mL (≈ 17.5 µM)

C/C=C(/C)C(=O)O[C@H]1[C@H](OC(=O)/C(C)=C\C)[C@@]2(CO)C(CC1(C)C)C1=CCC3[C@@]4(C)CC[C@H](O[C@@H]5OC(C(=O)O)[C@@H](O)C(O)C5O[C@@H]5OC(CO)[C@H](O)C(O)C5O)C(C)(C)C4CC[C@@]3(C)[C@]1(C)[C@@H](O)[C@H]2O (stereo partly shown) [Y5]
IC50, cytotoxic to Leishmania Major (promastigotes) ([1]; MTT assay, promastigotes): 16 µg/mL (≈ 15.9 µM)

C/C=C(/C)C(=O)O[C@H]1[C@H](O)[C@@]2(COC(=O)C(C)CC)C(CC1(C)C)C1=CCC3[C@@]4(C)CC[C@H](O[C@@H]5OC(C(=O)O)[C@@H](O)C(O[C@@H]6O[C@@H](CO)C(O)C6O)C5O[C@@H]5OC(CO)[C@H](O)C(O)C5O)C(C)(C)C4CC[C@@]3(C)[C@]1(C)[C@@H](O)[C@H]2O (stereo partly drawn) [Y7, 3-O-[β-D-galactopyranosyl-(1→2)]-α-L-arabinofuranosyl-(1→3)-β-D-glucuronopyranosyl-21-O-angeloyl-28-O-2-methylbutanoyl-3β, 15α, 16α, 21β, 22α, 28-hexahydroxyolean-12-ene]
IC50, cytotoxic to Leishmania Major (promastigotes) ([1]; MTT assay, promastigotes): 18 µg/mL (≈ 15.7 µM) | % inhibition of Fibronectin secretion [3, 9]: 34%

C/C=C(/C)C(=O)O[C@H]1[C@H](OC(=O)/C(C)=C/C)[C@@]2(CO)C(CC1(C)C)C1=CCC3[C@@]4(C)CC[C@H](O[C@@H]5OC(C(=O)O)[C@@H](O)C(O[C@@H]6OC[C@@H](O)C(O)C6O)C5O[C@@H]5OC(CO)[C@H](O)C(O)C5O)C(C)(C)C4CC[C@@]3(C)[C@]1(C)C[C@H]2O (stereo partly drawn) [Z12, 3-O-[β-D-galactopyranosyl(1→2)]-β-D-xylopyranosyl(1→3)-β-D-glucuronopyranosyl-21-O-angeloyl, 22-O-tigloyl-3β, 16α, 21β, 22α, 28-pentahydroxyolean-12-ene]
IC50, cytotoxic to Leishmania Major (promastigotes) ([1]; MTT assay, promastigotes): 23 µg/mL (≈ 20.4 µM)
